Experimental data from patent US6528656B1, “Linear or cyclic aminophosphonates as pH markers in phosphorus 31 NMR spectroscopy” (Centre National de la Recherche Scientifique (CNRS), priority 1998, dated 2003).
Like-named read-outs stand apart in the source and are kept apart here.

Columns and labels:
tumour cell line = details: cited from earlier work
[1] = tested on: myocardial or liver cells; experiment: toxicity, cell penetration and 31P NMR pH measurement in myocardial or liver cells; format: cell-based
Text: The compounds of formulae (II.1) and (II.2) are on the whole particuarly non-toxic and penetrate into myocardial or liver cells (in sufficient amount to be observed but in a sufficiently small amount to remain non-toxic), thus allowing a measurement of the pH values of intracellular and extracellular media.

physchem [2] = format: physicochemical; details: 37° C., 5 mM solution in phosphate buffer, 400 MHz NMR, from titration curve
Protocol: The results obtained allowed titration curves to be plotted.
Each measurement was taken at 37° C. using a 5 mM solution of the test compound in a phosphate buffer on a 400 MHz NMR spectroscopy machine.
The variation in the phosphorus-31 chemical shift was studied as a function of the pH: the measurements were taken at 22° C., or 37° C. respectively, on a 400 MHz NMR machine using 5 mM solutions of the test compound in a phosphate buffer.

physchem [3] = experiment: physchem

In the case of `O=CC[C@@H](O)[C@H](O)[C@H](O)COP(=O)(O)O` [2-deoxyglucose 6-phosphate, 2-Deoxyglucose 6-phosphate], the metabolism (tumour cell line) is given as “not metabolized” and the toxicity (tumour cell line) is given as “toxic to the cell”.

In the case of `CCOP(=O)(OCC)C1(C)CCCN1` (centres unmarked) [Compound 1, 2-methyl-2-diethoxyphosphorylpyrrolidine], the “variations in the phosphorus chemical shift as a function of intracellular acidosis versus intracellular Pi” value ([1]; in the course of ischaemia, cytosolic medium) is reported as “fully correlated” and the “pH measurements in liver compartments (extracellular, cytosolic, intravesicular medium)” value ([1]; liver, very acidic (pH 5) vesicles) is reported as “allows three measurements at the same time”.

For `CCOP(=O)(OCC)C1(P(=O)(OCC)OCC)CCCN1` [Compound 2, 2,2-bis(diethoxyphosphoryl) pyrrolidine], the pKa (physchem [2]) was 3.47 and the pKa (physchem [3]) was 3.5.

Work on `CC(C)OP(=O)(OC(C)C)C1(P(=O)(OC(C)C)OC(C)C)CCCN1` [Compound 3, 2,2-bis(diisopropoxyphosphoryl) pyrrolidine] yielded a pKa (physchem [2]) of 3.9.

Work on `CCOP(=O)(OCC)C1(C)CCC(C)(P(=O)(OCC)OCC)N1` (centres unmarked) [Compound 4, 2,5-bis(diethoxyphosphoryl)-2,5-dimethylpyrrolidine] yielded a pKa (physchem [2]) of 2.45.
